Data as given in patent US11446263B2, “Caspase inhibitor-containing drug for treating or preventing disorders caused by TGF-β, and applications thereof” (The Doshisha, priority 2015, dated 2022).

Assays:
[1] = tested on: rabbit cornea; assay: Cornea preservation using rabbit cornea in Optisol-GS (Example 11); type: cell-based; details: 2 weeks of preservation at 4° C., 10 μM in Optisol-GS
Procedure: Rabbit eye balls after 0 to 24 hours from euthanasia were used in the experiment. Under a stereoscopic microscope, the sclera was excised using spring scissors along the corneal limbus, and the lens and iris were removed to prepare a sclerocornea fragment. The sclerocornea fragment was divided into two pieces as the control group and emricasan supplemented groups. After dividing the cornea, the control group was left standing in DMSO supplemented Optisol-GS® (Bausch & Lomb) and the caspase inhibitor supplemented groups were left standing in Optisol-GS® supplemented with emricasan for 2 weeks at 4° C.
After washing the sclerocornea fragment with PBS (−), the fragment was immobilized with 4% formaldehyde for 10 minutes at room temperature (RT) and incubated for 60 minutes with 1% bovine serum albumin (BSA). Antibodies to N-cadherin (BD Bioscience) and ZO-1 (Zymed Laboratories) were used at 1:300 dilution. For secondary antibodies, Alexa Fluor® 488 labeled goat anti-mouse IgG (Life Technologies, A11009) was used at a dilution of 1:1000. A 1:400 dilution of phalloidin (Life Technologies) 546 was used for actin staining. […] Fluorescence was observed using a confocal microscope (TCS SP2 AOBS; Leica Microsystems, Wetzlar Germany). Cells found to have actin contractile rings under a fluorescence microscope were counted to measure the ratio.

[2] = tested on: p-Smad2; assay: p-Smad2 western blot in iFECD with TGF-β2 (Example 17); type: cell-based, human; details: TGF-β2 10 ng/mL, inhibitor 10 μM, 24 hours
Procedure: IFECDs were seeded at 1.0×10^5 each on a 12-well plate and cultured at 37° C. (5% CO2) until reaching 60 to 70% confluence. Dulbecco's Modified Eagle Medium (DMEM, nacalai tesque, 08456-36)+10% FBS (Thermo Fisher Scientific, S1820-500)+1% penicillin-streptomycin (nacalai tesque, 26252-94) was used as the medium. SB431542 (Wako Pure Chemical Industries, Ltd./192-16541), Z-VD-FMK (isomer mixture) (Wako Pure Chemical Industries, Ltd./262-02061), and emricasan (CHEMSCENE, LLC/CS-0599) were then added at a concentration of 10 μM, and the cells were incubated for 24 hours. The medium was exchanged in the control group and the TFG-β2 supplemented group. DMEM+2% FBS+1% P/S was used as the medium. TGF-β2 alone (10 ng/mL), or both TGF-β2 (10 ng/mL) and each inhibitor (10 μm) were added. After 24 hours, proteins were collected by the following method.
The medium was collected on ice to collect free and dead cells. The solution from washing the cells twice with 1×PBS (−) was also collected, and was centrifuged at 4° C. at 800×g for 15 minutes. The supernatant was discarded to obtain precipitates. […]
Chemi Lumi ONE Ultra (nacalai tesque, 11644-40) was used for detection. The detected band strength was analyzed with Amersham™ Imager 600 (GE Healthcare).

[3] = tested on: caspase 3; assay: Western blot of caspase 3 after UV irradiation (Example 2); type: cell-based, monkey; details: UV 100 J/m^2, 9 hours
Procedure: 1×10^5 cultured monkey corneal endothelial cells were seeded on a 12-well plate coated with FNC Coating Mix and were cultured until reaching confluence under the condition of 5% CO2 at 37° C. Dulbecco's Modified Eagle Medium (DMEM) (Gibco, 12320-032)+10% FBS+1% Penicillin-Streptomycin (nacalai tesque, 26252-94) was used as the medium.
Each inhibitor was added at the above concentration. The cells were incubated for 18 hours under the condition of 5% CO2 at 37° C. The control group and the UV irradiation group were supplemented with a solvent of each reagent, i.e., DMSO (Dimethyl Sulfoxide, Sterile-filtered) (nacalai tesque, 13408-64). Gibco DMEM+1% P/S (penicillin-streptomycin mixture) was used as the medium.
The cell supernatant was then removed, and the cells were irradiated with UV (100 J/m^2). After irradiation, media containing each inhibitor were added to the cells again. The cells were cultured for 9 hours.
The cell morphology was observed under a phase difference microscope. After observation, western blot was performed on proteins by the following procedure.
The medium was collected on ice to collect free and dead cells. The solution from washing the cells twice with 1×PBS (−) was also collected. 800 g was centrifuged at 4° C. for 5 minutes. The supernatant was discarded to obtain precipitates. The washed cells were supplemented with a protein extraction buffer (RIPA; 50 mM Tris-HCl (pH 7.4), 150 mM NaCl, 1 mM EDTA, 0.1% SDS, 0.5% DOC, 1% NP-40) on ice to extract proteins. The precipitates from centrifuging the free and dead cells were also subsequently suspended together for extraction. The collected solution was pulverized three times for 30 seconds in cold water with a sonication device (BIORUPTOR, TOSHO DENKI) and centrifuged for 10 min at 4° C. at 15000 rpm to collect the supernatant of proteins.
8 μg of the extracted protein was separated by SDS-PAGE and transferred onto a nitrocellulose membrane. A rabbit anti-caspase 3 antibody (Cell Signaling, 9662), rabbit anti-PARP antibody (Cell Signaling, 9542), and mouse anti-GAPDH antibody (MBL, M171-3) were used as the primary antibodies. A peroxidase-labeled anti-rabbit antibody and anti-mouse antibody (GE Healthcare Biosciences, NA934V, NA931V) were used as the secondary antibodies. For the primary antibodies, rabbit anti-caspase 3 antibody and rabbit anti-PARP antibody: 1000-fold dilution and mouse anti-GAPDH antibody: 3000-fold dilution, while the secondary antibody was diluted 5000-fold. Chemi Lumi ONE Ultra (nacalai tesque, 11644-40) was used for detection. The detected band strength was analyzed with a lumino image analyzer LAS-4000 mini (Fuji Film) and ImageQuant™ software (GE Healthcare).

[4] = tested on: fibronectin; assay: Fibronectin production due to TGF-β2 in iFECD, immunostaining and western blot (Example 17); type: cell-based, human; details: TGF-β2 10 ng/mL, inhibitor 10 μM, 24 hours
Procedure: Round glass was placed on a 24-well plate, disinfected for 5 minutes with ethanol, and coated with laminin-511 E8 Fragment. Then, iFECDs were seeded at 4.0×10^5 each and cultured at 37° C. (5% CO2) until reaching 60 to 70% confluence. Dulbecco's Modified Eagle Medium (DMEM, nacalai tesque, 08456-36)+10% FBS (Thermo Fisher Scientific, S1820-500)+1% penicillin-streptomycin (nacalai tesque, 26252-94) was used as the medium. SB431542 (Wako Pure Chemical Industries, Ltd./192-16541), Z-VD-FMK (isomer mixture) (Wako Pure Chemical Industries, Ltd./262-02061), and emricasan (CHEMSCENE, LLC/CS-0599) were then added at a concentration of 10 μM, and the cells were incubated for 24 hours. The medium was exchanged in the control group and the TFG-β2 supplemented group. DMEM+2% FBS+1% P/S was used as the medium. TGF-β2 alone (10 ng/mL), or both TGF-β2 (10 ng/mL) and each inhibitor (10 μM) were then added. After 24 hours, immunostaining was performed by the following method.
Cells after 24 hours form stimulation were washed with PBS (−) and immobilized with 4% PFA for 10 minutes at room temperature. 0.5% Triton was used for 5 minutes for permeation treatment, and 1% BSA was used for blocking for 1 hour. […] A confocal microscope (Leica Microsystems CMS GmcH Am Friendensplatz 3 68165 Mannheim, Germany) was used to observe fluorescence. […]

[5] = tested on: immobilized Fuchs' endothelial corneal dystrophy patient derived cells (iFECD); assay: Cell damage in iFECD due to TGF-β2, phase difference microscope (Example 9); type: cell-based, human; details: TGF-β2 10 ng/mL, inhibitor 10 μM, 24 hours
Procedure: 1.2×10^5 iFECDs were seeded on a 12-well plate coated without coating and were cultured for 24 hours under the condition of 5% CO2 at 37° C. Dulbecco's Modified Eagle Medium (nacalai tesque, 26252-94)+10% FBS (Biological Industries/04-001-1A)+1% Penicillin-Streptomycin (nacalai tesque, 26252-94) was used as the medium.
After 24 hours from seeding, each inhibitor was added at a concentration of 10 μM and the cells were incubated for 24 hours under the condition of 5% CO2 at 37° C. The medium was exchanged for the control group and the TGF-β2 group. DMEM+2% FBS+1% P/S was used as the medium.
SB431542 (Wako Pure Chemical Industries, Ltd./192-16541); Z-VAD-FMK (Peptide Institute/3188-v); Z-VD-FMK (isomer mixture) (Wako Pure Chemical Industries, Ltd./262-02061); and emricasan (CHEMSCENE, LLC/CS-0599).
Next, TGF-β2 (manufacturer: R&D Systems, Inc., distributor: Wako Pure Chemical Industries, Ltd./manufacturer codes 302-B2-002, 302-B2-010, distributor codes: 553-62881, 5-59-62883) (10 ng/mL) alone, or both TGF-β2 (10 ng/mL) and each inhibitor (10 μM) were added. After 24 hours, cell morphology and programmed cell death were observed using a phase difference microscope.

Row | Compound | actin contractile rings [1] | cell damage [1] | phosphorylated Smad2 (p-Smad2) [2] | inactive form cleaved caspase 3 of about 19 kDa ([3]; addition of 1 and 3 μM) | active form cleaved caspase 3 of about 17 kDa ([3]; all tested concentrations) | inactive form cleaved caspase 3 of about 19 kDa ([3]; other concentrations (10, 30, 100 μM)) | expression / overexpression of fibronectin [4] | effect of suppressing caspase 3 ([3]; concentration of 100 μM) | programmed cell death [5]
1 | C[C@H](NC(=O)C(=O)Nc1ccccc1C(C)(C)C)C(=O)N[C@@H](CC(=O)O)C(=O)COc1c(F)c(F)cc(F)c1F [emricasan, 3-[2-[(2-tert-butyl-phenylaminooxalyl)-amino]-propionylamino]-4-oxo-5-(2,3,5,6-tetrafluoro-phenoxy)-pentanoic acid] | significantly suppressed | hardly any cell damage | found | hardly observed | not observed | not observed | suppressed |  | 
2 | CC(C)[C@@]1(C(=O)N[C@H]2CC(=O)O[C@]2(O)CF)CC(c2nccc3ccccc23)=NO1 [nivocasan, (R)—N-((2S,3S)-2-(fluoromethyl)-2-hydroxy-5-oxotetrahydrofuran-3-yl)-5-isopropyl-1-3-(isoquinoline-1-yl)-4,5-dihydroisoxazole-5-carboxamide] |  |  |  |  |  |  |  | observed | 
3 | NC(=O)c1ccc(-c2nc(-c3ccc4c(c3)OCO4)c(-c3ccccn3)[nH]2)cc1 [SB431542] |  |  | not found |  |  |  | suppressed |  | suppressed
